Drawing on the OPERA property sets (Mansouri et al. 2018), this text covers logP for eleven molecules.

Each structure is given as a SMILES string.

As for `O=[N+]([O-])c1cccc(-c2cnc(SCCc3c[nH]cn3)[nH]2)c1`, the log partition coefficient (logP) (usually the decadic logarithm of the partition coefficient of the neutral form, usually between octanol and water) was 2.43.

`c1ccc(-c2cnc(SCCc3c[nH]cn3)[nH]2)cc1` had a logP of 2.62.

With `NC(=O)c1ccc(-c2cnc(SCCc3c[nH]cn3)[nH]2)cc1`, the logP was determined as 1.4.

For `Clc1ccc(-c2cnc(SCCc3c[nH]cn3)[nH]2)cc1`, the logP turned out to be 3.66.

For the molecule `CCCc1ccc(-c2cnc(SCCc3c[nH]cn3)[nH]2)cc1`, the logP was determined as 4.09.

Take `Brc1cccc(-c2cnc(SCCc3c[nH]cn3)[nH]2)c1`: the logP was 3.76.

In the case of `O=[N+]([O-])c1ccc(-c2cnc(SCCc3c[nH]cn3)[nH]2)cc1`, the logP was 2.75.

In turn, `CCCCOc1ccc(-c2cnc(SCCc3c[nH]cn3)[nH]2)cc1` returned a log partition coefficient (logP) of 4.11.

Molecule `CCCc1cccc(-c2cnc(SCCc3c[nH]cn3)[nH]2)c1` returned a logP of 3.7.

As for `NC(=O)c1cccc(-c2cnc(SCCc3c[nH]cn3)[nH]2)c1`, the logP was determined as 1.61.

`O=S(=O)(Oc1ccc(-c2cnc(SCCc3c[nH]cn3)[nH]2)cc1)c1ccccc1` gave a logP of 3.72.
